According to article PMC12073635, “Synthesis of Tricyclic and Tetracyclic Lactone Derivatives of Thieno[2,3-b]pyrazine or Thieno[2,3-b]quinoline: Preliminary Antitumor and Antiparasitic Activity Evaluation” (Molecules, 2025):

Tests used:
[1] = system: AGS (gastric adenocarcinoma) cells; experiment: SRB cell growth inhibition assay, AGS; type: cell-based; conditions: Homo sapiens, 72 h, mean ± standard deviation
Procedure: (§1) The antitumor potential of the Sonogashira coupling products 2, tricyclic lactones 3 and 5, and tetracyclic lactones 7 was evaluated using the sulforhodamine B (SRB) assay against five human tumor cell lines: colorectal adenocarcinoma (CaCo-2), breast adenocarcinoma (MCF-7), gastric adenocarcinoma (AGS), cervical carcinoma (HeLa), and non-small cell lung cancer (NCI-H460). A primary pig liver cell culture (PLP2) was used to assess the toxicity of compounds.
(§2) The human tumor cell lines used were CaCo-2 (colorectal adenocarcinoma), MCF-7 (breast adenocarcinoma), AGS (gastric adenocarcinoma), HeLa (cervical carcinoma), NCI-H460 (lung carcinoma). Non-tumor cell lines were also tested: PLP2 (primary pig liver culture). All the cell lines were maintained in RPMI-1640 medium supplemented with 10% fetal bovine serum, glutamine (2 mM), penicillin (100 U/mL), and streptomycin ([…]), with the exception of PLP2, which was maintained in DMEM medium supplemented with fetal bovine serum (10%), glutamine and antibiotics. The culture flasks were incubated at 37 °C and with 5% CO2, under a humid atmosphere. The cells were used only when they had 70 to 80% confluence. A known mass of each compound was dissolved in DMSO/H2O (1:1, 1 mL), in order to obtain the stock solutions with a concentration of 1 mM. […] Each compound concentration (10 μL) was incubated with the cell suspension (190 μL) of the cell lines tested in 96-well microplates for 72 h. The microplates were incubated at 37 °C and with 5% CO2 in a humid atmosphere after checking the adherence of the cells. All cell lines were tested at a concentration of 10,000 cells/well. After the incubation period, the cells were treated: TCA (10% w/v; 100 μL) was previously cooled, and plates were incubated for 1 h at 4 °C, washed with water, and, after drying, a SRB solution (0.057%, m/v; 100 μL) was added and left to stand at room temperature for 30 min. To remove non-adhered SRB, plates were washed three times with a solution of acetic acid (1% v/v) and placed to dry. Finally, an adhered SRB was solubilized with Tris (10 mM, 200 μL) and the absorbance at a wavelength of 540 nm was read in the Biotek ELX800 microplate reader. The results obtained by the SRB assay were expressed regarding the concentration compounds that can inhibit cell growth by 50%—GI50. Doxorubicin was used as a positive control.

[2] = system: HeLa (cervical carcinoma) cells; experiment: SRB cell growth inhibition assay, HeLa; type: cell-based; conditions: Homo sapiens, 72 h, mean ± standard deviation
Procedure: as §1, §2

[3] = system: MCF-7 (breast adenocarcinoma) cells; experiment: SRB cell growth inhibition assay, MCF-7; type: cell-based, human; conditions: Homo sapiens, MCF7, 72 h, mean ± standard deviation
Procedure: as §1, §2

[4] = system: CaCo-2 (colorectal adenocarcinoma) cells; experiment: SRB cell growth inhibition assay, CaCo-2; type: cell-based, human; conditions: Homo sapiens, Caco-2, 72 h, mean ± standard deviation
Procedure: as §1, §2

[5] = SRB assay, toxicity in non-tumor PLP2 cells; type: cell-based, pig; conditions: PLP2 primary pig liver cells (non-tumor); non-tumor primary pig liver cells, SRB assay, 72 h, mean ± standard deviation
Procedure: as §1, §2

[6] = system: NCI-H460 (non-small cell lung cancer) cells; experiment: SRB cell growth inhibition assay, NCI-H460; type: cell-based; conditions: Homo sapiens, 72 h, mean ± standard deviation
Procedure: as §1, §2

[7] = system: L. infantum MHOM/MA/67/ITMAP-263 promastigotes; experiment: Resazurin-based assay against L. infantum promastigotes; type: cell-based, Leishmania infantum; conditions: Leishmania infantum, 72 h, dose-response
Procedure: (§3) The antiparasitic activity of compounds 2c–g, 3a, 5a and 7 was evaluated at a single concentration of 20 μM, against Trypanosoma brucei (T. brucei) and Leishmania infantum (L. infantum) promastigotes. The results are shown in Table 9 together with the cytotoxicity data (CC50) in THP-1–derived macrophages cells.
L. infantum MHOM/MA/67/ITMAP-263 promastigotes forms were grown at 27 °C, in complete RPMI-1640 medium supplemented with 10% heat-inactivated Fetal Bovine Serum (FBS), 2 mM L-glutamine, 100 UI/mL penicillin/streptomycin, 20 mM HEPES. Parasites maintenance was performed in T25 non-ventilated flasks by subpassage at a concentration of 1 × 10^6/mL every 5 days on T25 non-ventilated flasks.
The compounds’ efficacy against L. infantum promastigotes was evaluated using a resazurin-based assay. Parasites were added to 100 µL of serial dilutions of compounds in supplemented complete medium at a cell density of 5 × 10^5/mL. As a quality control, a dose–response curve to the antileishmanial drug miltefosine was included in all the assays. The final volume of the assay was 200 µL/well. Each condition was carried out in duplicate. Following 72 h of incubation at the specific conditions for L. infantum, 20 µL of a 0.5 mM resazurin solution was added, and the plates were incubated for a further 4 h under the same conditions. The methodology to obtain the results was the same described in Section 3.2.2. for T. brucei.

[8] = MTT cytotoxicity in THP-1-derived macrophages; type: cell-based, human; conditions: human, THP-1-derived macrophages (PMA-differentiated); MTT, 72 h, tested 100 to 12.5 μM; read-out: CC50 Interval in THP-1-Derived Macrophages
Procedure: Human leukemia cell line, THP-1 (ATCC® TIB-202™, Manassas, VA, USA) was cultured in RPMI-1640 medium supplemented with 10% heat-inactivated Fetal Bovine Serum (FBS), 2 mM L-glutamine, 100 UI/mL penicillin/streptomycin, 20 mM HEPES. The cell line was maintained in a humidified incubator at 37 °C and 5% CO2 by subculture every three days in 20 mL of media at a concentration of 1 × 10^5/mL in a T75 flask. All cell culture reagents were purchased from Lonza-Bioscience (Morrisville, NC, USA).
The cytotoxicity effect of compounds on THP-1-derived macrophages was assessed by the colorimetric MTT assay (3-(4,5-dimethylthiazol-2-yl)-2,5-diphenyl tetrazolium bromide). Briefly, THP-1 cells were suspended in RPMI complete medium at a density of 1 × 10^6 cells/mL and 100 μL/well were seeded in a 96-well plate and were differentiated into macrophages by addition of 40 ng/mL of phorbol-myristate 13-acetate (PMA, Sigma, Saint Louis, MI, USA) for 24 h followed by replacement with fresh medium for more 24 h. Subsequently, cells were incubated with 100 μL of compounds ranging from 100 to 12.5 μM after dilution in the RPMI complete medium. Each condition was carried out in quadruplicate. After 72 h of incubation at 37 °C 5% CO2, the medium was removed and 200 μL of 0.5 mg/mL MTT solution diluted in RPMI was added. Plates were incubated for an additional 4 h. Then 160 μL of media was removed and the same volume of 2-propanol was added. Absorbance was read at 570 nm using a Synergy 2 Multi-Mode Reader (Biotek, Winooski, VT, USA). Cytotoxicity was evaluated by the determination of the CC50 value (drug concentration that reduced the percentage of viable cells in 50%) and calculated by non-linear regression analysis using GraphPad Prism version 8.1.1 for Windows (GraphPad Software, San Diego, CA, USA). The results represent the average of at least three independent experiments. For each compound, the Selectivity Index (SI) was calculated as the ratio between cytotoxicity in THP-1 (CC50, 72 h) and activity against parasites (IC50, 72 h).

[9] = system: T. brucei Lister 427 bloodstream forms; experiment: Resazurin-based anti-T. brucei assay; type: cell-based, Trypanosoma brucei; conditions: Trypanosoma brucei, 72 h, dose-response
Procedure: as §3
T. brucei Lister 427 bloodstream forms were grown in a humidified incubator at 37 °C, 5% CO2 in complete HMI-9 medium 1 supplemented with 10% heat-inactivated Fetal Bovine Serum (FBS) and 100 UI/mL penicillin/streptomycin. Parasites maintenance was performed in T25 ventilated flasks by subpassage at a concentration of 1 × 10^4/mL every 2 days on T25 ventilated flasks.
The efficacy of compounds against T. brucei bloodstream forms was evaluated using a modified resazurin-based assay previously described in the literature. Parasites were added to 100 µL of serial dilutions of compounds in supplemented complete medium at a cell density of 5 × 10^3/mL for. As a quality control, a dose–response curve for the antitrypanosomal pentamidine was included in all the assays. The final volume of the assay is 200 µL/well. Each condition was carried out in duplicate. Following 72 h incubation at the specific conditions for T. brucei, 20 µL of a 0.5 mM resazurin solution was added and plates were incubated for a further 4 h under the same conditions. Fluorescence was measured at 544 nm and 590 nm excitation and emission wavelength, respectively, using a Synergy 2 Multi-Mode Reader (Biotek, Winooski, VT, USA). Results were shown as % of parasite growth inhibition compared to control (untreated parasites) and represent the average of at least three independent experiments. The effect was evaluated by the determination of the IC50 value (concentration required to inhibit growth in 50%) and calculated by non-linear regression curves using GraphPad Prism version 8.1.1 for Windows (GraphPad Software, San Diego CA, USA).

SMILES | GI50 [1] [µM] | GI50 [2] [µM] | GI50 [3] [µM] | GI50 [4] [µM] | GI50 [6] [µM] | IC50 [7] [µM] | IC50 [9] [µM] | GI50 at 72 h [5] [µM] | CC50 at 72 h [8] [µM]
N=C(N)c1ccc(OCCCCCOc2ccc(C(=N)N)cc2)cc1 [Pentamidine, pentamidine, reference compound] | – | – | – | – | – | 2.94 | – | – | –
COc1cccc2c1C(=O)c1c(O)c3c(c(O)c1C2=O)C[C@@](O)(C(=O)CO)C[C@@H]3O[C@H]1C[C@H](N)[C@H](O)[C@H](C)O1 [doxorubicin, Doxorubicin, reference compound] | 0.03 | 0.05 | 0.05 | 0.04 | 0.07 | – | – | 0.1 | –
COC(=O)c1sc2nccnc2c1C#Cc1ccccc1 [Compound 2a, Methyl 7-(phenylethynyl)thieno[2,3-b]pyrazine-6-carboxylate] | 86.8 ± 4.99 | 68.7 ± 3.05 | 94.8 ± 6.43 | 70 ± 3.78 | 91.5 ± 9.12 | – | – | > 125 | –
CCCCCCCCCCCCCCCCOP(=O)([O-])OCC[N+](C)(C)C [Milefosine, miltefosine, reference compound] | – | – | – | – | – | – | 2.9 | – | –
COC(=O)c1sc2nccnc2c1C#Cc1ccc(N)cc1 [Compound 2b, Methyl 7-[(4-aminophenyl)ethynyl]thieno[2,3-b]pyrazine-6-carboxylate] | 51.4 ± 2.87 | 47.9 ± 3.58 | 49.7 ± 2.41 | 59.2 ± 1.76 | 48.6 ± 4.31 | – | – | > 125 | –

Now from value to compound, other results behind:

GI50 [1] [µM] | GI50 [2] [µM] | GI50 [3] [µM] | GI50 [4] [µM] | GI50 [6] [µM] | IC50 [7] [µM] | IC50 [9] [µM] | SMILES | GI50 at 72 h [5] [µM] | CC50 at 72 h [8] [µM]
56.2 ± 3.02 | 50.3 ± 4.79 | 58.6 ± 1.86 | 90.5 ± 6.47 | 45.3 ± 3.27 | – | – | COc1ccc(-c2cc3c(sc4nccnc43)c(=O)o2)cc1 [Compound 3d, 8-(4-Methoxyphenyl)-6H-pyrano[4′,3′:4,5]thieno[2,3-b]pyrazin-6-one] | > 125 | –
32.8 ± 1.56 | 29.1 ± 2.81 | 45.1 ± 1.74 | 18.3 ± 0.92 | 48.3 ± 1.08 | – | – | O=c1oc(-c2ccccc2)c(Br)c2c1sc1nccnc12 [Compound 5b, 9-Bromo-8-phenyl-6H-pyrano[4′,3′:4,5]thieno[2,3-b]pyrazin-6-one] | 89.8 ± 1.79 | –
43.8 ± 1.76 | 38.2 ± 3.29 | 47.6 ± 4.5 | 28.8 ± 1.85 | 29.3 ± 1.47 | – | – | Cc1ccc(-c2cc3c(sc4nccnc43)c(=O)o2)cc1 [Compound 3e, 8-(p-Tolyl)-6H-pyrano[4′,3′:4,5]thieno[2,3-b]pyrazin-6-one] | 90.5 ± 6.47 | –
83.4 ± 6.27 | 71.5 ± 2.36 | 76.4 ± 2.58 | 87 ± 3.51 | 92.1 ± 3.89 | – | – | Cc1c(-c2ccccc2)oc(=O)c2sc3nc4ccccc4cc3c12 [Compound 7f, 4-Methyl-3-phenyl-1H-pyrano[4’,3’:4,5]thieno[2,3-b]quinolin-1-one] | > 125 | 12.5 to 50
104 ± 9.12 | 77.1 ± 1.12 | 90.3 ± 4.16 | 87.8 ± 8.01 | 108 ± 5.44 | – | – | O=c1oc(-c2ccc(Br)cc2)c(-c2ccc(Br)cc2)c2c1sc1nc3ccccc3cc12 [Compound 7c, 3,4-Bis(4-bromophenyl)-1H-pyrano[4′,3′:4,5]thieno[2,3-b]quinolin-1-one] | > 125 | < 12.5
45.3 ± 0.89 | 39 ± 1.78 | 48.6 ± 2.15 | 52.5 ± 1.31 | 44 ± 3.28 | – | – | O=c1oc(-c2ccsc2)cc2c1sc1nccnc12 [Compound 3g, 8-(thiophen-3-yl)-6H-pyrano[4′,3′:4,5]thieno[2,3-b]pyrazin-6-one] | > 125 | –
56.4 ± 3.76 | 49.7 ± 2.69 | 77.5 ± 1.23 | 79.9 ± 3.56 | 36.5 ± 0.69 | – | – | O=c1oc(-c2ccccc2)cc2c1sc1nccnc12 [Compound 3a, 8-phenyl-6H-pyrano[4′,3′:4,5]thieno[2,3-b]pyrazin-6-one] | > 125 | 50 to 100
74.3 ± 5.96 | 58.1 ± 4.29 | 75.7 ± 6.48 | 67.5 ± 4.19 | 82.7 ± 7.41 | – | – | Nc1ccc(-c2cc3c(sc4nccnc43)c(=O)o2)cc1 [Compound 3b, 8-(4-aminophenyl)-6H-pyrano[4′,3′:4,5]thieno[2,3-b]pyrazin-6-one] | > 125 | –
51.5 ± 3.29 | 48.4 ± 3.19 | 56.1 ± 3.56 | 44.1 ± 0.93 | 72.4 ± 6.24 | – | – | O=c1oc(-c2ccc(F)cc2)cc2c1sc1nccnc12 [Compound 3c, 8-(4-fluorophenyl)-6H-pyrano[4′,3′:4,5]thieno[2,3-b]pyrazin-6-one] | > 125 | –
